The text below walks through data of PubChem BioAssay (NCI).

Some test systems named below: HS 578T breast; HT29 colon; 786-0 renal; IGROV1 ovarian; CAKI-1 renal; HCC-2998 colon; SW-620 colon; A549 NSCLC; DU-145 prostate; SF-268 CNS; NCI-H23 lung; SK-MEL-5 melanoma; NCI-H522 lung; HCT-15 colon; SNB-75 CNS; BT-549 breast; TK-10 renal; SK-MEL-2 melanoma; T-47D breast; HOP-92 NSCLC.
Common to all, as to assay: growth of human tumour cells (NCI), 48 h

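Growth conditions: 96-well plates. Treatment: test compound, 48 hours, 5 concentrations. Analysis: linear interpolation between bracketing concentrations; unreached endpoints set to highest concentration. TGI is the concentration that stops growth completely.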

In the case of `CCN(CC)CCC(=O)c1ccc(Sc2ccc(F)cc2)cc1`, the TGI was 30.8 µM in the assay with HS 578T breast; 85.2 µM in the assay on HT29 colon; 23.6 µM in the assay with 786-0 renal; 35 µM in the assay with IGROV1 ovarian; 29.5 µM with CAKI-1 renal; 89.6 µM with HCC-2998 colon. Moreover, the TGI in the assay with SW-620 colon was 41.2 µM; in the assay with A549 NSCLC, over 100 µM; in the assay with DU-145 prostate, 36.1 µM; in the assay with SF-268 CNS, 35.1 µM; in the assay on NCI-H23 lung, 33.9 µM; with SK-MEL-5 melanoma, 34.5 µM. Besides, the TGI in the assay on NCI-H522 lung turned out to be 35.8 µM; in the assay on HCT-15 colon, 33.4 µM; in the assay on SNB-75 CNS, 32.2 µM; in the assay on BT-549 breast, 31.6 µM; in the assay on TK-10 renal it was 27.9 µM; with SK-MEL-2 melanoma, 45.1 µM. Moreover, the TGI in the assay on T-47D breast amounted to 42.9 µM.
`O=C(c1ccccc1)c1ccc(N2C(=O)/C(=C/Cc3ccco3)N=C2c2ccccc2)c(N2C(=O)/C(=C/Cc3ccco3)N=C2c2ccccc2)c1`: the TGI was 64.9 µM in the assay with HS 578T breast; over 100 µM in the assay with HT29 colon; over 100 µM in the assay with 786-0 renal; over 100 µM in the assay on IGROV1 ovarian; over 100 µM in the assay with CAKI-1 renal; over 100 µM in the assay with HCC-2998 colon. The TGI was over 100 µM in the assay with SW-620 colon; over 100 µM in the assay with A549 NSCLC; 96.6 µM in the assay on DU-145 prostate; over 100 µM in the assay on SF-268 CNS; 88.5 µM with SK-MEL-5 melanoma; over 100 µM in the assay on HCT-15 colon. For the same compound, the TGI was 66.9 µM with SNB-75 CNS; over 100 µM in the assay with BT-549 breast; over 100 µM in the assay on HOP-92 NSCLC; over 100 µM in the assay with TK-10 renal; 58.6 µM in the assay on SK-MEL-2 melanoma; over 100 µM in the assay on T-47D breast.
Regarding `O=C(O)CSCc1cc2c(O)c(c1)Cc1cc(CSCC(=O)O)cc(c1O)Cc1cc(CSCC(=O)O)cc(c1O)Cc1cc(CSCC(=O)O)cc(c1O)C2`, the TGI in the assay on HS 578T breast, in the assay with HT29 colon, in the assay on 786-0 renal, with IGROV1 ovarian, in the assay on CAKI-1 renal and with HCC-2998 colon was over 100 µM throughout. Also, the TGI in the assay with SW-620 colon, with A549 NSCLC, in the assay with DU-145 prostate, in the assay on SF-268 CNS, in the assay on NCI-H23 lung and with NCI-H522 lung was over 100 µM throughout. In addition, the TGI in the assay with HCT-15 colon, with BT-549 breast, in the assay with HOP-92 NSCLC, in the assay on TK-10 renal, in the assay on SK-MEL-2 melanoma and with T-47D breast was over 100 µM each time.
As to `Cc1ccc(/C=N/n2c(Cc3ccccc3)n[nH]c2=O)cc1`, the TGI with HS 578T breast, in the assay with HT29 colon, with 786-0 renal, with IGROV1 ovarian, in the assay on CAKI-1 renal and in the assay on HCC-2998 colon was over 100 µM throughout. Moreover, the TGI in the assay on SW-620 colon, in the assay on A549 NSCLC, in the assay on DU-145 prostate, with SF-268 CNS, in the assay on NCI-H23 lung and in the assay with SK-MEL-5 melanoma was over 100 µM in each case. Further, the TGI with NCI-H522 lung was over 100 µM; in the assay on HCT-15 colon, over 100 µM; in the assay on SNB-75 CNS it was over 100 µM; with BT-549 breast, over 100 µM; in the assay with HOP-92 NSCLC, 83.4 µM; with TK-10 renal, over 100 µM. In addition, in the assay on T-47D breast, the TGI is over 100 µM.
Consider `CC(=O)OCC(OC(C)=O)C(OC(C)=O)C(/C=N\Nc1nc2ccccc2c(=O)[nH]1)=N\Nc1nc2ccccc2c(=O)[nH]1` (centres undefined), for which the TGI was over 100 µM in the assay on HS 578T breast; over 100 µM in the assay on HT29 colon; over 100 µM with 786-0 renal; over 100 µM in the assay on IGROV1 ovarian; over 100 µM in the assay with CAKI-1 renal; 36.3 µM in the assay on HCC-2998 colon. For the same compound, the TGI in the assay with SW-620 colon, in the assay with A549 NSCLC, in the assay with DU-145 prostate, in the assay on SF-268 CNS, in the assay on NCI-H23 lung and in the assay with SK-MEL-5 melanoma was over 100 µM in each case. In addition, the TGI with NCI-H522 lung, in the assay on HCT-15 colon, in the assay on SNB-75 CNS, in the assay on BT-549 breast, with HOP-92 NSCLC and in the assay on SK-MEL-2 melanoma was over 100 µM each time. For the same compound, the TGI in the assay with T-47D breast is over 100 µM.
`COc1cc(/C=C2/SC(c3ccccc3)N(Cc3ccccc3)C2=O)cc(OC)c1OC` (centres undefined): the TGI with HS 578T breast, in the assay with HT29 colon, in the assay on 786-0 renal, in the assay on CAKI-1 renal, with HCC-2998 colon and with SW-620 colon was over 100 µM each time. Moreover, the TGI with A549 NSCLC is over 100 µM; in the assay with DU-145 prostate, over 100 µM; in the assay with SF-268 CNS, over 100 µM; in the assay on NCI-H23 lung, over 100 µM; with SK-MEL-5 melanoma, 28 µM; with NCI-H522 lung, 63 µM. The TGI with HCT-15 colon, with BT-549 breast, in the assay with HOP-92 NSCLC, with TK-10 renal, in the assay with SK-MEL-2 melanoma and in the assay with T-47D breast was over 100 µM throughout.
As to `O=C1NC(=S)N/C1=C\c1cc2c(=O)c3ccccc3sc2s1`, the TGI with HS 578T breast, in the assay on HT29 colon, in the assay with 786-0 renal, with IGROV1 ovarian, in the assay with CAKI-1 renal and with HCC-2998 colon was over 100 µM throughout. The TGI in the assay with SW-620 colon, in the assay with DU-145 prostate, in the assay with SF-268 CNS, in the assay on NCI-H23 lung, in the assay with SK-MEL-5 melanoma and in the assay with NCI-H522 lung was over 100 µM throughout. Besides, the TGI in the assay with HCT-15 colon is over 100 µM; with SNB-75 CNS it was 72 µM; in the assay with BT-549 breast it was over 100 µM; in the assay with TK-10 renal it was over 100 µM; in the assay with SK-MEL-2 melanoma, over 100 µM; with T-47D breast it was over 100 µM.
